Assay results: PubChem BioAssay (NCI)
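Cultured in 96-well plates, cells were exposed to test compound for 48 hours across five concentrations. GI50 = concentration required for 50% inhibition of growth. The concentration for full growth arrest is given as TGI.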

How the values were obtained:
Experiment in all cases: inhibition of tumour cell growth, NCI panel, 48 h
OVCAR-5 ovarian = system: OVCAR-5 ovarian
HL-60(TB) leukemia = system: HL-60(TB) leukemia
HCT-116 colon = system: HCT-116 colon
LOX IMVI melanoma = system: LOX IMVI melanoma
SF-268 CNS = system: SF-268 CNS
PC-3 prostate = system: PC-3 prostate
NCI/ADR-RES ovarian = system: NCI/ADR-RES ovarian
RPMI-8226 leukemia = system: RPMI-8226 leukemia
SNB-19 CNS = system: SNB-19 CNS
OVCAR-4 ovarian = system: OVCAR-4 ovarian

SMILES | GI50 (OVCAR-5 ovarian) | TGI (OVCAR-5 ovarian) | GI50 (HL-60(TB) leukemia) | TGI (HL-60(TB) leukemia) | GI50 (HCT-116 colon) | TGI (HCT-116 colon) | GI50 (LOX IMVI melanoma) | TGI (LOX IMVI melanoma) | GI50 (SF-268 CNS) | TGI (SF-268 CNS) | GI50 (PC-3 prostate) | TGI (PC-3 prostate) | GI50 (NCI/ADR-RES ovarian) | TGI (NCI/ADR-RES ovarian) | GI50 (RPMI-8226 leukemia) | TGI (RPMI-8226 leukemia) | GI50 (SNB-19 CNS) | TGI (SNB-19 CNS) | GI50 (OVCAR-4 ovarian) | TGI (OVCAR-4 ovarian)
CCOC(=O)/C=C1/SC(=Nc2ccc(C#N)cc2)N(Cc2ccco2)C1=O | 3.36 µM | 16.1 µM | 2.38 µM | 5.76 µM | 2.06 µM | 4.97 µM | 1.72 µM | 3.32 µM | 3.38 µM | 13.7 µM | 3.11 µM | 9.96 µM | 3.42 µM | 90.8 µM | 2.4 µM | 7.46 µM | 3.83 µM | 13.8 µM | 2.74 µM | 11.2 µM
COc1ccc2c(c1)C(=O)c1c-2n(CCCN(C)C)c(=O)c2cc([N+](=O)[O-])ccc12 | 0.0235 µM | 0.394 µM | < 0.01 µM | 0.245 µM | < 0.01 µM | 0.21 µM | < 0.01 µM | 0.108 µM | < 0.01 µM | 2.29 µM | < 0.0278 µM | 1.05 µM | < 0.01 µM | 0.188 µM | < 0.01 µM | 0.0707 µM | < 0.01 µM | 7.93 µM | 0.0515 µM | 9.37 µM
